This assay concerns the target T1, Adrenergic receptor alpha-1 (Rattus norvegicus, UniProt P15823+P23944+P43140).
T1 sequence (P15823 whole entry): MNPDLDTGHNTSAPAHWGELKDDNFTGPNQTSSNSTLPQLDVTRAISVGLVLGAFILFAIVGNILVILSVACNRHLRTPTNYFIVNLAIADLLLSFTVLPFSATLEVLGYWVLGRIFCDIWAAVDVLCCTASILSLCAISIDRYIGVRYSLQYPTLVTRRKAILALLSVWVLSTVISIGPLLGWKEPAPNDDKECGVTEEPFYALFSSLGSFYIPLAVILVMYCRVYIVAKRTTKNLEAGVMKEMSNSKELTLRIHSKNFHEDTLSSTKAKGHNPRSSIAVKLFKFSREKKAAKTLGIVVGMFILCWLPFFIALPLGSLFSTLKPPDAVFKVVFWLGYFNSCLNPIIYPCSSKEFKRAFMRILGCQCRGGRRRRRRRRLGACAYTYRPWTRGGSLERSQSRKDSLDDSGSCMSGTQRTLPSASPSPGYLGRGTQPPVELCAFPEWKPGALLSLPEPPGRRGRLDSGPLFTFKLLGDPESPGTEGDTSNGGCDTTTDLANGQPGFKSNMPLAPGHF
T1 sequence (P23944 whole entry): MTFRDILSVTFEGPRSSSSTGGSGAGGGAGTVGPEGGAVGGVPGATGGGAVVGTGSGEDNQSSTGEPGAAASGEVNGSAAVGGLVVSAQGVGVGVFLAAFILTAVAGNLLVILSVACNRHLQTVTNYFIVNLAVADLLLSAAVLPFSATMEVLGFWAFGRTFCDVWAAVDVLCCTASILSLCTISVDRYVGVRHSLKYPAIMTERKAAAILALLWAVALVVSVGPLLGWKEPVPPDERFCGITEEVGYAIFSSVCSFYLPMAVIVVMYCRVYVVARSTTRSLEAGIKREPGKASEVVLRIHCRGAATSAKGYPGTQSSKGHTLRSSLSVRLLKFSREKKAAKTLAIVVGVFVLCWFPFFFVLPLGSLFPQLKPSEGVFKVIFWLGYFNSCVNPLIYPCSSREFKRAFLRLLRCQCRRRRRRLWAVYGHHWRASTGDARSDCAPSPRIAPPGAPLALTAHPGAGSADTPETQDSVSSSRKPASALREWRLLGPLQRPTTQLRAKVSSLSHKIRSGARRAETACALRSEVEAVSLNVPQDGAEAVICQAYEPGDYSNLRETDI
T1 sequence (P43140 whole entry): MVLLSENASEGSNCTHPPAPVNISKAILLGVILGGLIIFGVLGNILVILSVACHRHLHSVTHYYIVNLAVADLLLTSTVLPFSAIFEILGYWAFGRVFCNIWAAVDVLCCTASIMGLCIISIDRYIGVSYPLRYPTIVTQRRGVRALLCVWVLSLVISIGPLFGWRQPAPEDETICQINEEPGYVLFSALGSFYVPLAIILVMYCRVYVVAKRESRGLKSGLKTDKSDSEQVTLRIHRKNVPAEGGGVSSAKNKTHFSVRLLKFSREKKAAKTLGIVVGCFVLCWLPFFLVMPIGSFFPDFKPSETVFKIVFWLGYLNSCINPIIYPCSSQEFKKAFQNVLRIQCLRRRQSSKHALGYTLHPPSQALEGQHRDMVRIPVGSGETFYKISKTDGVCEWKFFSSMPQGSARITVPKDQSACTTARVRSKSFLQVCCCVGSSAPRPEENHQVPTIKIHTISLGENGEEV
Kind of assay: Antagonist activity at alpha1 adrenoceptor in Sprague-Dawley rat aorta assessed as inhibition of norepinephrine-induced contraction treated 30 mins before norepinephrine challenge.

In general, pA2 refers to the negative logarithm of the molar antagonist concentration that doubles the agonist concentration needed for the same response. For the compound `COc1ccc([N+](=O)[O-])c(C2c3cc(OC)c(OC)cc3CCN2CCOc2ccccc2)c1` (stereo not drawn), the pA2 is 8.46.

Consider `COc1ccc(NCCOc2ccccc2)c(C2c3cc(OC)c(OC)cc3CCN2CCOc2ccccc2)c1` (stereo not drawn), for which the pA2 stood at 8.34. In the case of `COc1ccc2c(c1)C(c1ccccc1NCCOc1ccccc1)N(CCOc1ccccc1)CC2` (stereo not drawn) it was 6.72; in that of `COc1cc2c(cc1OC)C(Cc1ccccc1)N(CCOc1ccccc1)CC2` (stereo not drawn), 8.23; in that of `c1ccc(OCCNc2ccccc2C2c3ccccc3CCN2CCOc2ccccc2)cc1` (stereo not drawn), 7.71. For `COc1ccc2c(c1)C(c1ccccc1[N+](=O)[O-])N(CCOc1ccccc1)CC2` (stereo not drawn) the value was 8.11; for `COc1ccc(N)c(C2c3cc(OC)c(OC)cc3CCN2CCOc2ccccc2)c1` (stereo not drawn), 7.51; for `COc1cc2c(cc1OC)C(c1ccccc1NCCOc1ccccc1)N(CCOc1ccccc1)CC2` (stereo not drawn), 8.33. For `COc1ccc2c(c1)C(c1ccccc1N)N(CCOc1ccccc1)CC2` (stereo not drawn) the value was 7.36. As to `O=[N+]([O-])c1ccccc1C1c2ccccc2CCN1CCOc1ccccc1` (stereo not drawn), the pA2 is 7.94. In the case of `COc1cc2c(cc1OC)C(c1ccccc1N)N(CCOc1ccccc1)CC2` (stereo not drawn) it was 7.66.

Consider `COc1cc2c(cc1OC)C(c1ccccc1[N+](=O)[O-])N(CCOc1ccccc1)CC2` (stereo not drawn), for which the pA2 turned out to be 9.01.

`Nc1ccccc1C1c2ccccc2CCN1CCOc1ccccc1` (stereo not drawn): the pA2 is recorded as 5.46.

The record behind these values is ChEMBL document CHEMBL1138572, “The synthesis of N-phenoxyethyl-1-substituted-1,2,3,4-tetrahydroisoquinolines and their alpha1-adrenoceptor blocking activity” (Eur J Med Chem, 2009).
